Results: US10214546B2, “Btk inhibitors” (MERCK SHARP & DOHME CORP., priority 2014, dated 2019)
Where two headings read alike, the source gives them in different places.

Columns and labels:
[1] = target: BTK enzyme (recombinant full-length BTK, hBTK) (Homo sapiens (Human), UniProt Q06187); test: BTK enzymatic activity LANCE TR-FRET assay; format: biochemical; details: 50 pM hBTK, 25 μM ATP, 2 μM biotin-A5-peptide; compound range 1 μM to 0.017 nM; read-out: BTK binding IC50
[2] = system: adenosine uptake into HeLa cells; test: [3H]Adenosine uptake assay in HeLa cells; format: cell-based; details: [3H]adenosine accumulation in HeLa cells, compound range 10 μM to 0.032 nM, read-out: ADU inhibition IC50
How it was run: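 IC50 came from a 4-parameter fit of counts per second over a ten-point, 1:3 titration (final 10 µM down to […]). Compound was applied 30 min at ambient temperature in HBSS/5% FBS before a 500 nM [3H]adenosine solution was added; uptake ran 60 min, read by Cytostar-T proximity scintillation.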

Sequence of BTK enzyme (recombinant full-length BTK, hBTK) (Q06187 whole entry): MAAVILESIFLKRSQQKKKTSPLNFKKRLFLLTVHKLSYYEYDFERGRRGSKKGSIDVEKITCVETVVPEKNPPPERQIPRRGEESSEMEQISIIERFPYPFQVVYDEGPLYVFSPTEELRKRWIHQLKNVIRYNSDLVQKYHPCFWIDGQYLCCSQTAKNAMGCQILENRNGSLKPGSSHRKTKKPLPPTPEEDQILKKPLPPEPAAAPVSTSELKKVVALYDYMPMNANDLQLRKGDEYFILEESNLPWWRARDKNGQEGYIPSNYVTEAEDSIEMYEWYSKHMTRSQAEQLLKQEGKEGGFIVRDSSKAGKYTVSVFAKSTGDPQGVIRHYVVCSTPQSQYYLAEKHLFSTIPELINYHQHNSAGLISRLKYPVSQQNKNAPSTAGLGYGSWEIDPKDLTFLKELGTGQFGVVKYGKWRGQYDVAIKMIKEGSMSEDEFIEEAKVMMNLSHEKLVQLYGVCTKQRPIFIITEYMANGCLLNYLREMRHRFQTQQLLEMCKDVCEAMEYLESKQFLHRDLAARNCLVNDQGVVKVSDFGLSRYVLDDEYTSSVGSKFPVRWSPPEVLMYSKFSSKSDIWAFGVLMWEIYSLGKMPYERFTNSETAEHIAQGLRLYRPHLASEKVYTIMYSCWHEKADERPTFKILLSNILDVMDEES

| SMILES | IC50 [1] [nM] | IC50 ([2]; Homo sapiens, HeLa) [nM] | IC50 [2] [nM] |
| --- | --- | --- | --- |
| CC(O)(c1ccc(-c2nc([C@@H]3CC[C@H]4CCC(=O)N4C3)n3ccnc(N)c23)cc1)c1cc(C(F)(F)F)cc(C(F)(F)F)c1 (stereo partly drawn) [Example 146, (6R,8aS)-6-[8-amino-1-(4-{1-[3,5-bis(trifluoromethyl)phenyl]-1-hydroxyethyl}phenyl)imidazo[1,5-a]pyrazin-3-yl]hexahydroindolizin-3(2H)-one] | 752 | 1490 | – |
| CC(O)(c1ccc(-c2nc([C@@H]3CC[C@H]4CCC(=O)N4C3)n3ccnc(N)c23)cc1)c1cccc(OC(F)F)c1 (stereo partly drawn) [Example 148, (6R,8aS)-6-[8-amino-1-(4-{1-[3-(difluoromethoxy)phenyl]-1-hydroxyethyl}phenyl)imidazo[1,5-a]pyrazin-3-yl]hexahydroindolizin-3(2H)-one] | 0.2 | – | 2990 |
| CC(O)(c1ccc(-c2nc([C@@H]3CC[C@H]4CCC(=O)N4C3)n3ccnc(N)c23)cc1)C1CC2CCC1CC2 (stereo partly drawn) [Example 149, (6R,8aS)-6-{8-amino-1-[4-(1-bicyclo[2.2.2]oct-2-yl-1-hydroxyethyl)phenyl]imidazo[1,5-a]pyrazin-3-yl}hexahydroindolizin-3(2H)-one] | 888 | – | 701 |
| CC(O)(c1ccc(-c2nc([C@@H]3CC[C@H]4CCC(=O)N4C3)n3ccnc(N)c23)cc1)C1CC2CCC1CC2 (stereo partly drawn) [Example 150, (6R,8aS)-6-{8-amino-1-[4-(1-bicyclo[2.2.2]oct-2-yl-1-hydroxyethyl)phenyl]imidazo[1,5-a]pyrazin-3-yl}hexahydroindolizin-3(2H)-one] | 1.6 | – | 2410 |
| C[C@@](O)(c1ccc(-c2nc([C@@H]3CC[C@H]4CCC(=O)N4C3)n3ccnc(N)c23)cc1)c1cccc(-n2ccnc2)c1 [Example 152, (6R,8aS)-6-[8-amino-1-(4-{(1R)-1-hydroxy-1-[3-(1H-imidazol-1-yl)phenyl]ethyl}phenyl)imidazo[1,5-a]pyrazin-3-yl]hexahydroindolizin-3(2H)-one] | 39.1 | 2960 | – |
| C[C@](O)(c1ccc(-c2nc([C@@H]3CC[C@H]4CCC(=O)N4C3)n3ccnc(N)c23)cc1)c1cccc(-n2ccnc2)c1 [Example 153, (6R,8aS)-6-[8-amino-1-(4-{(1S)-1-hydroxy-1-[3-(1H-imidazol-1-yl)phenyl]ethyl}phenyl)imidazo[1,5-a]pyrazin-3-yl]hexahydroindolizin-3(2H)-one] | 1000 | 1960 | – |
| C[C@@](O)(c1ccc(-c2nc([C@@H]3CC[C@H]4CCC(=O)N4C3)n3ccnc(N)c23)cc1)c1ccnc(C(F)(F)F)c1 [Example 155, (6R,8aS)-6-[8-amino-1-(4-{(1R)-1-hydroxy-1-[2-(trifluoromethyl)pyridin-4-yl]ethyl}phenyl)imidazo [1,5-a]pyrazin-3-yl]hexahydroindolizin-3(2H)-one] | 858 | 2750 | – |
| CCOc1cc(C(C)(O)c2cccc(C(F)(F)F)c2)ccc1-c1nc([C@@H]2CC[C@H]3CCC(=O)N3C2)n2ccnc(N)c12 (stereo partly drawn) [Example 162, (6R,8aS)-6-[8-amino-1-(2-ethoxy-4-{1-hydroxy-1-[3-(trifluoromethyl)phenyl]ethyl}phenyl)imidazo [1,5-a]pyrazin-3-yl]hexahydroindolizin-3(2H)-one] | 0.63 | 4210 | – |
| CC(O)(c1ccc(-c2nc([C@@H]3CC[C@H]4CCC(=O)N4C3)n3ccnc(N)c23)cc1)c1cccc(C2CC2(F)F)c1 (stereo partly drawn) [Example 165, (6R,8aS)-6-[8-amino-1-(4-{1-[3-(2,2-difluorocyclopropyl)phenyl]-1-hydroxyethyl}phenyl)imidazo[1,5-a]pyrazin-3-yl]hexahydroindolizin-3(2H)-one] | 28.9 | – | 1090 |
| CCOc1cc(C(C)(O)c2cccc(C(F)(F)F)c2)ccc1-c1nc([C@@H]2CC[C@H]3CCC(=O)N3C2)n2ccnc(N)c12 (stereo partly drawn) [Example 167, (6R,8aS)-6-[8-amino-1-(2-ethoxy-4-{1-hydroxy-1-[3-(trifluoromethyl)phenyl]ethyl}phenyl)imidazo [1,5-a]pyrazin-3-yl]hexahydroindolizin-3(2H)-one] | 20.6 | – | 2410 |

Further molecules by falling IC50 [1], results first:

| IC50 [1] [nM] | IC50 ([2]; Homo sapiens, HeLa) [nM] | IC50 [2] [nM] | SMILES |
| --- | --- | --- | --- |
| 1000 | 1220 | – | CC(O)(c1ccc(-c2nc([C@@H]3CC[C@H]4CCC(=O)N4C3)n3ccnc(N)c23)cc1)c1cc(C(F)(F)F)ccc1F (stereo partly drawn) [Example 145, (6R,8aS)-6-[8-amino-1-(4-{1-[2-fluoro-5-(trifluoromethyl)phenyl]-1-hydroxyethyl}phenyl)imidazo[1,5-a]pyrazin-3-yl]hexahydroindolizin-3(2H)-one] |
| 1000 | 464 | – | C[C@](O)(c1ccc(-c2nc([C@@H]3CC[C@H]4CCC(=O)N4C3)n3ccnc(N)c23)cc1)c1ccnc(C(F)(F)F)c1 [Example 154, (6R,8aS)-6-[8-amino-1-(4-{(1S)-1-hydroxy-1-[2-(trifluoromethyl)pyridin-4-yl]ethyl}phenyl)imidazo [1,5-a]pyrazin-3-yl]hexahydroindolizin-3(2H)-one] |
| 169 | – | 1560 | CC1(C)CC(=O)N2C[C@@H](c3nc(-c4ccc([C@@](C)(O)c5cccc(C(F)(F)F)c5)cc4)c4c(N)nccn34)CC[C@@H]21 [Example 163, (6S,8aR)-6-[8-amino-1-(4-{(1R)-1-hydroxy-1-[3-(trifluoromethyl)phenyl]ethyl}phenyl)imidazo [1,5-a]pyrazin-3-yl]-1,1-dimethylhexahydroindolizin-3(2H)-one] |
| 72.3 | 1470 | – | C[C@@](O)(c1ccc(-c2nc([C@H]3CC[C@@H]4COCC(=O)N4C3)n3ccnc(N)c23)cc1)c1cccc(C(F)(F)F)c1 [Example 156, (7S,9aR)-7-(8-amino-1-(4-{(1R)-1-hydroxy-1-[3-(trifluoromethyl)pheny]ethyl}phenyl)imidazo [1,5-a]pyrazin-3-yl]hexahydropyrido[2,1-c][1,4]oxazin-4(3H)-one] |
| 48 | – | 830 | CC(O)(c1ccc(-c2nc([C@@H]3CC[C@H]4CCC(=O)N4C3)n3ccnc(N)c23)cc1)c1cccc(C2CC2(F)F)c1 (stereo partly drawn) [Example 164, (6R,8aS)-6-[8-amino-1-(4-{1-[3-(2,2-difluorocyclopropyl)phenyl]-1-hydroxyethyl}phenyl)imidazo[1,5-a]pyrazin-3-yl]hexahydroindolizin-3(2H)-one] |
| 26.2 | – | 3830 | CC(O)(c1ccc(-c2nc([C@@H]3CC[C@H]4CCC(=O)N4C3)n3ccnc(N)c23)cc1)C1CC2CCC1CC2 (stereo partly drawn) [Example 147, (6R,8aS)-6-{8-amino-1-[4-(1-bicyclo[2.2.2]oct-2-yl-1-hydroxyethyl)phenyl]imidazo[1,5-a]pyrazin-3-yl}hexahydroindolizin-3(2H)-one] |
| 12.1 | – | 2040 | CC(O)(c1ccc(-c2nc([C@@H]3CC[C@H]4CCC(=O)N4C3)n3ccnc(N)c23)cc1)c1cc(C(F)(F)F)ccc1F (stereo partly drawn) [Example 151, (6R,8aS)-6-[8-amino-1-(4-{1-[2-fluoro-5-(trifluoromethyl)pheny]-1-hydroxyethyl}phenyl)imidazo[1,5-a]pyrazin-3-yl]hexahydroindolizin-3(2H)-one] |
| 4.7 | 6300 | – | C[C@@](O)(c1ccc(-c2nc([C@@H]3CC[C@H]4CCC(=O)N4C3)n3c(F)cnc(N)c23)cc1)c1cccc(C(F)(F)F)c1 [Example 158, (6R,8aS)-6-[8-amino-5-fluoro-1-(4-{(1R)-1-hydroxy-1-[3-(trifluoromethyl)phenyl]ethyl}phenyl)imidazo [1,5-a]pyrazin-3-yl]hexahydroindolizin-3(2H)-one] |
| 2 | – | 10000 | CCOc1cc(C(C)(O)c2cccc(C)c2)ccc1-c1nc([C@@H]2CC[C@H]3CCC(=O)N3C2)n2ccnc(N)c12 (stereo partly drawn) [Example 166, (6R,8aS)-6-(8-amino-1-{2-ethoxy-4-[1-hydroxy-1-(3-methylphenyl)ethyl]phenyl}imidazo[1,5-a]pyrazin-3-yl)hexahydroindolizin-3(2H)-one] |
| 1.9 | 2220 | – | C[C@@](O)(c1ccc(-c2nc([C@@H]3CC[C@H]4COCC(=O)N4C3)n3ccnc(N)c23)cc1)c1cccc(C(F)(F)F)c1 [Example 157, (7R,9aS)-7-[8-amino-1-(4-{(1R)-1-hydroxy-1-[3-(trifluoromethyl)phenyl]ethyl}phenyl)imidazo [1,5-a]pyrazin-3-yl]hexahydropyrido[2,1-c][1,4)oxazin-4(3H)-one] |
| 0.27 | 2140 | – | CC1(C)CC(=O)N2C[C@@H](c3nc(-c4ccc([C@@](C)(O)c5cccc(C(F)(F)F)c5)cc4)c4c(N)nccn34)CC[C@@H]21 [Example 161, (6S,8aR)-6-[8-amino-1-(4-{(1R)-1-hydroxy-1-[3-(trifluoromethyl)phenyl]ethyl}phenyl)imidazo [1,5-a]pyrazin-3-yl]-1,1-dimethylhexahydroindolizin-3(2H)-one] |
| 0.1 | – | 1880 | CC(O)(c1ccc(-c2nc([C@@H]3CC[C@H]4CCC(=O)N4C3)n3ccnc(N)c23)cc1)c1cccc(C2CC2(F)F)c1 (stereo partly drawn) [Example 159, (6R,8aS)-6-[8-amino-1-(4-{1-[3-(2,2-difluorocyclopropyl)phenyl]-1-hydroxyethyl}phenyl)imidazo[1,5-a]pyrazin-3-yl]hexahydroindolizin-3(2H)-one] |
| 0.07 | – | 1840 | CC(O)(c1ccc(-c2nc([C@@H]3CC[C@H]4CCC(=O)N4C3)n3ccnc(N)c23)cc1)c1cccc(C2CC2(F)F)c1 (stereo partly drawn) [Example 160, (6R,8aS)-6-[8-amino-1-(4-{1-[3-(2,2-difluorocyclopropyl)phenyl]-1-hydroxyethyl}phenyl)imidazo[1,5-a]pyrazin-3-yl]hexahydroindolizin-3(2H)-one] |
